Active and inactive are the calls of the source.
What was measured:
[1] = molecular target: T1, Tyrosine-protein phosphatase non-receptor type 7 (Homo sapiens, UniProt P35236); experiment: HePTP tyrosine phosphatase activity blockers – biochemical, absorbance, leukemia target, primary screen (AID 521); type: functional
T1 sequence (P35236 whole entry): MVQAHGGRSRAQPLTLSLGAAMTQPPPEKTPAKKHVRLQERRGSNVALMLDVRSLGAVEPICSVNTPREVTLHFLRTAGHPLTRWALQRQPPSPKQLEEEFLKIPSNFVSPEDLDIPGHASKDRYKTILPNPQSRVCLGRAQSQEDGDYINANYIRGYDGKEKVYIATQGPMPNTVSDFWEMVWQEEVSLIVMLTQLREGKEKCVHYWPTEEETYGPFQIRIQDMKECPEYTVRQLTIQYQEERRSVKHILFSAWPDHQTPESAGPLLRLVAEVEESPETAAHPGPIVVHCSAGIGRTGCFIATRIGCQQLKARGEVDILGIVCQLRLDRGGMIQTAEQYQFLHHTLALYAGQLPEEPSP

[2] = HEK-293T viability loss after treatment – luminescence, T-cell screen hits, cytotoxicity control for TCR NF-kB inhibitor project, dose response (AID 489026); type: functional, cell-based;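 also: cells exposed to compound about 14 hours before the viability readout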
[3] = molecular target: Heat shock protein HSP 90-alpha (Homo sapiens, UniProt P07900); experiment: Luminescence-based dose response biochemical high throughput screening assay for inhibitors of the Heat Shock Protein 90 (HSP90). [Related pubchem assays: 1831 (Summary AID.), 1846 (Confirmation screen.), 1789 (Primary screen.)]
[4] = molecular target: Mitogen-activated protein kinase 10 (Homo sapiens, UniProt P53779); experiment: Dose response biochemical screening assay for inhibitors of c-Jun N-Terminal Kinase 3 (JNK3). [Related pubchem assays: 746 ]
Sequence of Mitogen-activated protein kinase 10 (P53779 whole entry): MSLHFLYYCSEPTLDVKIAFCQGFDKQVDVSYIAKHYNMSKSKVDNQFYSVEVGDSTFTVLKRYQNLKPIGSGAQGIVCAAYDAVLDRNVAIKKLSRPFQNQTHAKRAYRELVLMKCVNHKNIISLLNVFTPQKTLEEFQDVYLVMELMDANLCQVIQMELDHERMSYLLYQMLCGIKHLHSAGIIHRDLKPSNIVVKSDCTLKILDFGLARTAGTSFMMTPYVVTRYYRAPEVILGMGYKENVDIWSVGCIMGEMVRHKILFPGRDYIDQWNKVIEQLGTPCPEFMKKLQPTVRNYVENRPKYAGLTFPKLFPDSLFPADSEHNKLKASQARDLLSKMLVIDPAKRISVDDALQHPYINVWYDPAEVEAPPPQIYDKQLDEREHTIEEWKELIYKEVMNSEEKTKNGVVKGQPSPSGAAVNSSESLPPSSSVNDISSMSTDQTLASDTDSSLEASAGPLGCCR

[5] = HIV-1 Vif–A3G interaction blockers – biochemical, TR-FRET, GST-Vif 1-94, biotin-A3G peptide, dose response retest, primary screen (AID 1117319); type: functional;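 also: TR-FRET signal of purified GST-Vif binding a biotinylated A3G peptide; inhibitors lower the FRET signal by blocking Vif and A3G binding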
[6] = viability loss in THP-1 monocytes – THP-1 cells, cytotoxicity control for Vif-APOBEC3G degradation inhibitor project, dose response (AID 1117359); type: functional; conditions: THP-1
[7] = molecular target: T2, COUP transcription factor 2 (Homo sapiens, UniProt P24468); experiment: Luminescence-based cell-based high throughput dose response assay to identify inhibitors of COUP-TFII (NR2F2).; type: functional;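 also: HEK293 cells transiently cotransfected with COUP-TFII expression vector and reporter; luciferase reporter luminescence driven by COUP-TFII from the pX2-168 reporter plasmid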
T2 sequence (P24468 whole entry): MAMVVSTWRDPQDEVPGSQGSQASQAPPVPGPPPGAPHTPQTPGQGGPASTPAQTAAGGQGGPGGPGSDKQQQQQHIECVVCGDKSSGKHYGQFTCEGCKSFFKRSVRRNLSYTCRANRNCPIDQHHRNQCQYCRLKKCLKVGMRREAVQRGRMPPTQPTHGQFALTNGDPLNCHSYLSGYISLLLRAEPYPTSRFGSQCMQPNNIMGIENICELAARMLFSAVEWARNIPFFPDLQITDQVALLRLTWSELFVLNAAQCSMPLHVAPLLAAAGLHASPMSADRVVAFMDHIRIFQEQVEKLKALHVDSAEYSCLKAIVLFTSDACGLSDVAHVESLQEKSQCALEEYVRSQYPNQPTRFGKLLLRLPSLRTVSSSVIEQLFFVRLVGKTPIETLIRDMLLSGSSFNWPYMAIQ

[8] = NIH3T3 cell viability loss – ATP luminescence, mouse fibroblasts, counter-screen, dose response (AID 2010); type: functional, cell-based;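 also: cells exposed to compound for about 90 hours before reading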
[9] = viability loss in Vero cells – cytotoxicity control for Vif-APOBEC3G degradation inhibitor project, dose response (AID 1117358); type: functional; conditions: Vero
[10] = Trypanosoma cruzi growth suppression in host cells – NIH3T3 host cells, beta-gal luminescence, confirmation (AID 2044); type: functional, cell-based;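 also: intracellular parasites grown in NIH/3T3 mouse fibroblasts as host cells; luminescent beta-galactosidase reporter signal from transgenic T. cruzi replicating inside host cells; inhibitors lower the luminescence signal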

O=C(O)C1(c2ccc(Cl)cc2)CCC1
IC50 [1]: > 100 µM (not active)

CN(C)c1ccc(-c2nn3c(-c4ccccc4Cl)nnc3s2)cc1
IC50 [1]: > 100 µM (not active) | IC50 [2]: > 80 µM (inactive)

COc1cc(N2Cc3ccccc3C2)ccc1C=O
IC50 [3]: > 7 µM (active)

Cc1ccccc1-n1nc(C)c2cc(C(=O)NCc3cccnc3)sc21
IC50 [4]: 10.6 µM (not active)

CC(NC(=O)c1ccco1)C(c1cccs1)N1CCOCC1 (centres undefined)
IC50 [1]: > 100 µM (not active)

COc1cc(NC(=O)C2CC(c3cccc(OC)c3OC)=NO2)cc(OC)c1OC (centres undefined)
IC50 [4]: 4.19 µM (active)

COc1ccc(CCNCc2ccc(C)s2)cc1OC
IC50 [5]: > 100 µM (active) | CC50 [6]: > 40 µM (active)

COc1ccc(CCNC(=O)C(C)n2nc(C)c3c(C)n(-c4ccc(C)cc4)nc3c2=O)c(OC)c1 (centres undefined)
IC50 [7]: 5.2 µM (active)

CCc1ccc(N/C(SCc2cccc(F)c2)=C(/C#N)C(=O)NCc2ccco2)cc1
EC50 [8]: 10.4 µM (active) | CC50 [9]: > 40 µM (active) | EC50 [10]: 1.7 µM (active)

C=CCOc1c(CNc2cccc(C(=O)O)c2)cccc1OC
IC50 [3]: 2.39 µM (active)
